Measurements reported in US12612412B2, “Antiviral heterocyclic compounds” (Enanta Pharmaceuticals, Inc., priority 2021, dated 2026).
Where two headings read alike, the source gives them in different places.

Assays:
[1] = tested on: genotype A, "Long" strain RSV; test: RSV-A assay (CPE protection in Hep-2 cells, ATPlite readout); format: cell-based, Human respiratory syncytial virus (HRSV); conditions: human respiratory syncytial virus, MOI 0.1, CPE protection
Method in brief: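 Hep-2, 8,000 cells/well, MOI 0.1 (PFU- or TCID50-based); 2-fold compound series, duplicates; 5 d incubation; ATPlite luminescence readout; EC50.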

[2] = tested on: HMPV clinical isolate TN/1501/A1; test: HMPV antiviral assay Method-B (clinical isolate TN/1501/A1 in LLC-MK2 cells, ATP-Lite readout); format: cell-based, Human metapneumovirus (HMPV); conditions: human metapneumovirus, LLC-MK2, 144 h, hMPV WT1501 (clinical isolate TN/1501/A1), 6 days
Method in brief: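 EC50 derived by four-parameter logistic fit of percent cell health, measured by ATP-Lite luminescence and normalised to virus-only and uninfected-cell controls. Compounds run in duplicate from 10 μM top, 3-fold, 10 points. Infection: LLC-MK2 cells, MOI 0.014, 2 μg/mL final TPCK-trypsin, serum-free, 6 days at 37° C.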

[3] = RSV-A Long strain, read-out: Human RSV-A (“Long”) EC50
[4] = genotype A “Long” strain RSV, read-out: Human RSV-A (“Long”)

| Structure (SMILES) | EC50 [1, 3] [nM] | EC50 [2] [nM] | EC50 [1, 4] [nM] |
| --- | --- | --- | --- |
| C[C@]1(C(N)=O)COc2c1cc([C@@](O)(CNC(=O)c1cc(Cl)c3nn(C4CC4)cc3c1)C1CC1)nc2-c1cc(Br)c(F)cc1F [Example 1096] | < 200 | < 500 |  |
| COc1cc(C(=O)NC[C@](O)(c2cc3c(c(-c4ccc5ncccc5c4)n2)OC[C@]3(C)C(N)=O)C(F)(F)F)cc2cn(C3CC3)nc12 [Example 966] | > 200 | > 500 |  |
| C[C@]1(C(N)=O)COc2c1cc([C@@](O)(CNC(=O)c1ccc3nn(C4CC4)cc3c1)C(F)(F)F)nc2-c1ccc2c(c1)OC(F)(F)O2 [Example 819] |  | < 500 | < 200 |
| Cc1cnc2c(Cl)cc(C(=O)NC[C@](O)(c3cc4c(c(-c5cc(F)c(F)cc5F)n3)OC[C@]4(C)C(N)=O)C3CC3)cc2c1 [Example 1153] | < 200 | < 500 |  |
| COc1cc(C(=O)NC[C@](O)(c2cc3c(c(-c4ccc(F)cc4)n2)OC[C@]3(C)C(N)=O)C2CCCC2)cc2cn(C3CC3)nc12 [Example 644] |  | > 500 | > 200 |
| C[C@]1(C(N)=O)COc2c1cc([C@@](O)(CNC(=O)c1cc(Cl)c3nn(C4CC4)cc3c1)C(F)(F)F)nc2-c1csc2c(F)cccc12 [Example 609] |  | < 500 | < 200 |
| C[C@]1(C(N)=O)COc2c1cc([C@@](O)(CNC(=O)c1cc(Cl)c3nn(C4(F)CC4)cc3c1)C(F)(F)F)nc2-c1ccc(F)cc1 [Example 834] | < 200 | < 500 |  |
| COc1cc(C(=O)NC[C@](O)(c2cc3c(c(-c4ccc(F)c(C(F)(F)F)c4)n2)OC[C@]3(C)C(N)=O)C2(F)CC2)cc2cn(C3CC3)nc12 [Example 749] |  | < 500 | < 200 |
| COc1cc(C(=O)NC[C@](O)(c2cc3c(c(-c4ccc(F)cc4)n2)OC[C@]3(C)C(N)=O)C2(F)CC2)cc2cc(Cl)c(C)nc12 [Example 707] |  | < 500 | < 200 |
| COc1cc(C(=O)NC[C@](O)(c2cc3c(c(-c4ccc(F)cc4)n2)OC[C@]3(C)C(N)=O)C(F)(F)F)cc2c(=O)n(C3CC3)[nH]c12 [Example 876] | > 200 | > 500 |  |
| COc1cc(C(=O)NC[C@](O)(c2cc3c(c(-c4ccc(F)c(Cl)c4)n2)OC[C@]3(C)C(N)=O)C2CC2)cc2cc(Cl)c(C)nc12 [Example 633] |  | < 500 | < 200 |
| C[C@]1(C(N)=O)COc2c1cc([C@@](O)(CNC(=O)c1ccc(OC3CC3)c3nccn13)C(F)(F)F)nc2-c1ccc(F)cc1 [Example 702] |  | > 500 | < 200 |
| COc1cc(C(=O)NC[C@](O)(c2cc3c(c(-c4ccc(C5(C#N)CC5)cc4)n2)OC[C@]3(C)C(N)=O)C(F)(F)F)cc2cn(C3CC3)nc12 [Example 981] | > 200 | > 500 |  |
| COc1cc(C(=O)NC[C@](O)(c2cc3c(c(-c4ccc(F)c(Cl)c4)n2)OC[C@]3(C)C(N)=O)C2CC2)cc2cn(C3CC3)nc12 [Example 575] |  | < 500 | < 200 |
| C[C@]1(C(N)=O)COc2c1cc([C@@](O)(CNC(=O)c1cc(Cl)c3nn(C4CC4)cc3c1)C1CC1)nc2-c1ccc(F)c(F)c1Cl [Example 564] |  | < 500 | < 200 |
| COc1cc(C(=O)NC[C@](O)(c2cc3c(c(-c4cc(F)c(F)c(Cl)c4)n2)OC[C@]3(C)C(N)=O)C2CC2)cc2cn(C(F)F)nc12 [Example 788] |  | < 500 | < 200 |
| COc1cc(C(=O)NC[C@](O)(c2cc3c(c(-c4ccc(Cl)cc4F)n2)OC[C@]3(C)C(N)=O)C2CC2)cc2cn(C3(F)CC3)nc12 [Example 840] | < 200 | < 500 |  |
| COc1cc(C(=O)NC[C@](O)(c2nc(-c3ccc(F)cc3)c3c(c2F)[C@@](C)(C(N)=O)CO3)C(F)(F)F)cc2cn(C(F)F)nc12 [Example 853] | < 200 | < 500 |  |
| COc1cc(C(=O)NC[C@@](O)(c2cc3c(c(-c4ccc(OC(F)F)cc4)n2)OC[C@]3(C)C(N)=O)C(F)(F)F)cc2cn(C3CC3)nc12 [Example 925] | < 200 | > 500 |  |
| COc1cc(C(=O)NC[C@](O)(c2cc3c(c(-c4ccc5c(c4)OC(F)(F)O5)n2)OC[C@]3(C(N)=O)C(F)F)C2CC2)cc2cc(C3CC3)nn12 [Example 1012] | > 200 | > 500 |  |
| C[C@]1(C(N)=O)COc2c1cc([C@@](O)(CNC(=O)c1cc(Cl)c3nn(C4CC4)cc3c1)C1CC1)nc2-c1ccc(F)c(Cl)c1F [Example 559] |  | < 500 | < 200 |
| COc1cc(C(=O)NC[C@](O)(c2cc3c(c(-c4ccc5c(c4)OC(F)(F)O5)n2)OC[C@]3(C(N)=O)C(F)F)C(F)(F)F)cc2cn(C3CC3)nc12 [Example 1034] | > 200 | > 500 |  |
| C[C@]1(C(N)=O)COc2c1cc([C@@](O)(CNC(=O)c1cc(OCC(F)F)c3nn(C4(F)CC4)cc3c1)C(F)(F)F)nc2-c1ccc(F)cc1 [Example 889] | < 200 | > 500 |  |
| COc1cc(C(=O)NC[C@](O)(c2cc3c(c(-c4ccc5c(c4)OC(F)(F)O5)n2)OC[C@]3(C)C(N)=O)C(F)(F)F)cc2cc(C3CC3)nn12 [Example 697] |  | < 500 | < 200 |
| CC[C@](O)(CNC(=O)c1cc(OC)c2nn(C3CC3)cc2c1)c1cc2c(c(-c3ccc(F)cc3)n1)OC[C@]2(C)C(N)=O [Example 642] |  | > 500 | < 200 |
| C[C@]1(C(N)=O)COc2c1cc([C@@](O)(CNC(=O)c1ccc(F)c(NC(=O)NC3CC3)c1)C(F)(F)F)nc2-c1ccc(F)c(Cl)c1 [Example 626] |  | > 500 | < 200 |
| COc1cc(C(=O)NC[C@](O)(c2cc3c(c(-c4ccc(F)c(Cl)c4)n2)OC[C@]3(CF)C(N)=O)C(F)(F)F)ccc1OC1CC1 [Example 1049] | < 200 | < 500 |  |
| COc1cc(C(=O)NC[C@](O)(c2nc(-c3ccc(F)cc3)c3c(c2F)[C@](C)(C(N)=O)CO3)C(F)(F)F)cc2cn(C(F)F)nc12 [Example 852] | < 200 | > 500 |  |
| COc1cc(C(=O)NC[C@](O)(c2cc3c(c(-c4ccc5ccccc5c4)n2)OC[C@]3(C)C(N)=O)C(F)(F)F)cc2cn(C3CC3)nc12 [Example 965] | > 200 | > 500 |  |
| COc1cc(C(=O)NC[C@](O)(c2cc3c(c(-c4cc(F)c(F)c(Cl)c4)n2)OC[C@]3(C)C(N)=O)C2CC2)cc2cn(C3CC3)nc12 [Example 787] |  | < 500 | < 200 |

More lines, now with the values ahead:

| EC50 [1, 3] [nM] | EC50 [2] [nM] | EC50 [1, 4] [nM] | Structure (SMILES) |
| --- | --- | --- | --- |
| < 200 | < 500 |  | COc1cc(C(=O)NC[C@](O)(c2cc3c(c(-c4ccc5c(c4)OC(F)(F)O5)n2)OC[C@]3(C)C(N)=O)C(F)(F)F)cc2cn(C3CC3)nc12 [Example 893] |
| < 200 | < 500 |  | COc1cc(C(=O)NC[C@](O)(c2cc3c(c(-c4cc(F)c(F)cc4F)n2)OC[C@]3(C)C(N)=O)C(F)(F)F)cc2cc(Cl)c(C)nc12 [Example 1140] |
|  | < 500 | < 200 | COc1cc(C(=O)NC[C@](O)(c2cc3c(c(-c4ccc(F)c(F)c4Cl)n2)OC[C@]3(C)C(N)=O)C(F)(F)F)cc2cc(Cl)c(C)nc12 [Example 774] |
| < 200 | < 500 |  | COc1cc(C(=O)NC[C@](O)(c2cc3c(c(-c4cc(F)c(F)cc4F)n2)OC[C@]3(C)C(N)=O)C(F)(F)F)cc2cn(C(F)F)nc12 [Example 1136] |
|  | < 500 | < 200 | Cc1cnc2c(Cl)cc(C(=O)NC[C@](O)(c3cc4c(c(-c5csc6c(F)cccc56)n3)OC[C@]4(C)C(N)=O)C(F)(F)F)cc2c1 [Example 601] |
| < 200 | < 500 |  | COc1cc(C(=O)NC[C@](O)(c2nc(-c3ccc(F)cc3)c3c(c2F)[C@@](C)(C(N)=O)CO3)C(F)(F)F)cc2cc(Cl)c(C)nc12 [Example 855] |
|  | < 500 | < 200 | C[C@]1(C(N)=O)COc2c1cc([C@@](O)(CNC(=O)c1cc(Cl)c3nn(C4CC4)cc3c1)C(F)(F)F)nc2-c1ccc(F)c(F)c1Cl [Example 780] |
|  | < 500 | < 200 | COc1cc(C(=O)NC[C@](O)(c2cc3c(c(-c4ccc(F)c(Cl)c4F)n2)OC[C@]3(C)C(N)=O)C(F)(F)F)cc2cn(C3(F)CC3)nc12 [Example 550] |
| < 200 | < 500 |  | COc1cc(C(=O)NC[C@](O)(c2cc3c(c(-c4ccc(F)c(C(F)(F)F)c4)n2)OC[C@]3(C)C(N)=O)C(F)(F)F)cc2cn(C3CC3)nc12 [Example 974] |
| < 200 | < 500 |  | COc1cc(C(=O)NC[C@](O)(c2cc3c(c(-c4ccc(F)cc4)n2)OC[C@]3(C)C(N)=O)C2CC2)cc2cc(Br)cnc12 [Example 1125] |
| < 200 | > 500 |  | COc1ccc(-c2nc([C@@](O)(CNC(=O)c3cc(OC)c4nn(C5CC5)cc4c3)C(F)(F)F)cc3c2OC[C@]3(C)C(N)=O)cc1Cl [Example 933] |
| < 200 | > 500 |  | COc1cc(C(=O)NC[C@@](O)(c2cc3c(c(-c4cccc(OC(F)F)c4)n2)OC[C@]3(C)C(N)=O)C(F)(F)F)cc2cn(C3CC3)nc12 [Example 917] |
| < 200 | > 500 |  | C[C@]1(C(N)=O)COc2c1cc([C@@](O)(CNC(=O)c1cc(F)c3nn(C4(F)CC4)cc3c1)C(F)(F)F)nc2-c1ccc(F)cc1 [Example 833] |
| < 200 | < 500 |  | COc1cc(C(=O)NC[C@](O)(c2cc3c(c(-c4cccc(Br)c4F)n2)OC[C@]3(C)C(N)=O)C2CC2)cc2cc(Cl)c(C)nc12 [Example 1092] |
|  | < 500 | < 200 | COc1cc(C(=O)NC[C@](O)(c2cc3c(c(-c4ccc(F)c(F)c4F)n2)OC[C@]3(C)C(N)=O)C(F)(F)F)cc2cc(Br)cnc12 [Example 520] |
